# Legend:
# [1] = tested on: 5′-CAAT(A/T)ATTG-3′ DNA sequence; experiment: Electrophoretic mobility shift assay with nuclear extracts of treated seedlings; type: binding, Helianthus annuus; conditions: nuclear extracts from ABA-treated 4-day-old seedlings
# Experimental: The presence of functional DNA binding proteins in sunflower nuclei was analyzed by electrophoretic mobility shift assays using a synthetic double-stranded oligonucleotide comprising the sequence 5′-CAAT(A/T)ATTG-3′ (SEQ ID NO:23) bound in vitro by Hahb-4 expressed in bacteria. […] On the contrary, only the slower-migrating complex increased when plants were subjected to water stress. Formation of both complexes was almost completely abolished by an excess of the same unlabelled DNA, but not by an equivalent amount of a similar DNA containing the sequence 5′-CACT(A/T)AGTG-3′ (SEQ ID NO:31) (changed positions underlined) not bound by Hahb-4 (FIG. 6).
# Sunflower nuclei and nuclear extracts were prepared from control, water-stressed, or ABA-treated seedlings (4-days-old) according to the technique described in Maliga et al. (Methods in Plant Molecular Biology. A Laboratory Course Manual, pages 233-260. Cold Spring Harbor Laboratory Press, Cold Spring Harbor, N.Y., USA, 1995, herein incorporated by reference). Protein patterns were analyzed by SDS-polyacryla-mide gel electrophoresis (PAGE) and total protein concentration was measured as described Sedmak J. et. al., Analytical Biochemistry 79: 544-552, 1977. […]
# Hahb-4 [2] = experiment: Time dependence of the response of Hahb-4 to ABA by Northern analysis; type: in vivo, Helianthus annuus; conditions: 100 μM ABA
# Experimental: Total RNA (20 μg) was isolated from seedlings that were either untreated, or treated with 100 μM ABA for different times as indicated in each lane. In the lower panel, the same filter was hybridized with an rRNA probe as a control for RNA loading and transfer.
# The high level of induction observed under water stress conditions allowed us to analyze the time-dependent increase in transcript levels by Northern experiments. […] After this time, no further increments in Hahb-4 transcript levels were observed. Re-hydration of the seedlings lowered Hahb-4 transcript levels more slowly, with only about a 50% decrease after 2 h (FIG. 3, lanes 4 and 5). The effect of ABA treatment was also time dependent. […] The high Hahb-4 transcript levels of the invention are reverted after the re-hydration of the sunflower plants, thus indicating again that said gene participates in the response to the water stress.
# Total RNA (20 μg) was denatured with formamide and formaldehyde, separated in a 1.5% (w/v) agarose/6% formaldehyde gel, and blotted onto nylon membranes (Hybond N; Amersham-Pharmacia, Buckinghamshire, UK) essentially as described by Sambrook, Fritsch & Maniatis (1989).
# Hybridization was performed overnight at 65° C. in 6×SSC (1×SSC is 0.15 M NaCl, 0.015 M Na3-citrate, pH 7.0), 0.1% (w/v) polyvinylpirrolidone, 0.1% (w/v) bovine serum albumin, 0.1% (w/v) Ficoll, 0.5% (w/v) sodium dodecyl sulphate (SDS). […] The filters were autoradiographed using Bio-Max films and transcreen (Eastman Kodak, Rochester, N.Y., USA) overnight. To check the amount of total RNA loaded in each lane, filters were then re-probed with a 25S rRNA from Vicia faba under similar conditions as those described above, except that hybridization was performed at 62° C.
# Hahb-4 [3] = experiment: Hahb-4 expression in treated sunflower seedlings by RNAse protection; type: in vivo, Helianthus annuus
# Source text: We have analyzed the expression of Hahb-4 under different environmental conditions (i.e. water, osmotic, salt, cold, heat, and oxidative stress) by RNAse protection, which is more sensitive than the Northern technique (FIG. 2).
# As many responses to water stress are mediated by ABA, we have also analyzed the effect of this hormone on the expression.
# Helianthus annuus L. (sunflower cv. contiflor 15, from Zeneca, Balcarce, Argentina, or cv. Sunweed, from Rhône-Poulenc, Lyon, France) seeds were surface sterilized and grown on filter paper inside Petri dishes for a period of 4 d. Seedlings were then transferred to plastic supports containing Hoagland's medium and grown until they had six leaves (approximately 3 weeks). Water stress was imposed either by transferring 4-day-old-seedlings to Petri dishes with dry filter paper or by removing plants from the hydroponic culture.
# For RNAse protection analysis, total RNA (15 μg) prepared as described (Almoguera C., et. al.; Plant molecular Biology 19: 781-792, 1992) was hybridized to a specific Hahb-4 riboprobe synthesized by in vitro transcription using T3 RNA polymerase and [^32P]CTP following the instructions of the manufacturer (Boehringer Mannheim, Mannheim, Germany). The template consisted of an insert corresponding to the coding region between +81 and +429 (FIG. 1 and SEQ ID NO 1) cloned into the SpeI/BamHI sites of pBlue-script SK^−. The BamHI site, not present in the cDNA, derives from amplification with oligonucleotide H41 as described above. Restriction digestion of this template DNA with EcoRI allows transcription of a 411-nucleotide RNA probe that contains 63 nucleotides from the vector (from the T3 promoter to the SpeI site in the polylinker, and from the BamHI to the EcoRI sites). Conditions for riboprobe preparation, hybridization, digestion with RNAse A, and subsequent electrophoretic analysis of protected RNA fragments were as previously described (Coca M: A: et. al.; Plant Molecular Biology 31: 863-876, 1996, herein incorporated as reference).
# Arabidopsis thaliana = experiment: Germination in the presence of mannitol or NaCl; type: in vivo; conditions: 50, 200, 300 mM mannitol
# Experimental: First, the germination process, under conditions imitating the lack of water, such as presence of mannitol, and other conditions generating salt stress, was analyzed. FIGS. 11, 12 and 13 show the germination times of plants transformed according to the invention as compared to control ones. […] This effect is more remarked at higher concentrations of the carbohydrate.
# When the germination tests were carried out in the presence of different concentrations of NaCl the obtained results were similar as in the case of mannitol.
# The seeds from Arabidopsis thaliana were sterilized by washing with ethanol 70% (v/v) (1 min), chlorine 5%-SDS 1% (15 min) and sterile distilled water (3 times). Then the seeds were suspended in 8 ml of agar 0.1% and sowed in 150 mm Petri plates containing MS medium, with the addition of Gamborg's vitamins. The plates were maintained at 4° C. during two days and then placed into a culture chamber with controlled light and temperature (16 hours light at 24° C. and 8 hours darkness at 21° C.). The required illumination conditions (150-200 μE/m 2) were artificially obtained by keeping the plants at a distance of 25 cm from six fluorescent tubes, intercalating white light and Grolux tubes (from Sylvania) adjacently located.
Compound,amount of both protein complexes binding the Hahb-4 target sequence [1],Hahb-4 transcript levels after 24 h of treatment (Hahb-4 [2]; 24 h),time of maximum response of Hahb-4 to ABA (Hahb-4 [2]; seedlings) [h],time until response of Hahb-4 to ABA is detectable (Hahb-4 [2]; seedlings) [h],Hahb-4 transcript levels (Hahb-4 [3]; 10 μM ABA),"Hahb-4 expression (Hahb-4 [3]; 100 μM ABA, 24 h, irrigated 4-day-old seedlings)","Hahb-4 expression (Hahb-4 [3]; 0.5 M mannitol during 4 h, 4-day-old seedlings)",effect of mannitol on germination (Arabidopsis thaliana)
"CC1=CC(=O)CC(C)(C)[C@@]1(O)/C=C/C(C)=C\C(=O)O [ABA, abscisic acid]",significantly increased,still significantly high,3 to 6,≤ 1,"smaller, but significant increase in transcript levels",induction was observed,,
"OC[C@@H](O)[C@@H](O)[C@H](O)[C@H](O)CO [Mannitol, mannitol]",,,,,,,"induced Hahb-4 expression, although at lower levels",delays the germination

# Source: patent US8283521B2, “Transcription factor gene induced by water deficit conditions and abscisic acid from Helianthus annuus, promoter and transgenic plants” (Bioceres S.A., priority 2003, dated 2012)
